Assay results from ChEMBL document CHEMBL1153778, “Contact-active microbicidal gold surfaces using immobilization of quaternary ammonium thiol derivatives” (2009).

Assays:
Format in all cases: functional
Staphylococcus aureus [1] = test: Antimicrobial activity against Staphylococcus aureus ATCC 6538 on gold coated surface assessed as log reduction of colony forming units after 24 hrs
Staphylococcus aureus [2] = test: Antimicrobial activity against Staphylococcus aureus ATCC 6538 on gold coated surface assessed as bactericidal efficiency after 4 hrs
Staphylococcus aureus [3] = test: Antimicrobial activity against Staphylococcus aureus ATCC 6538 on gold coated surface assessed as log reduction of colony forming units after 4 hrs

Structure (SMILES) | Activity (Staphylococcus aureus [1]) | Activity (Staphylococcus aureus [2]) | Activity (Staphylococcus aureus [3])
C[N+](C)(CCCCCCCCCCCS)Cc1ccccc1.[Cl-] | 0 | 30 | 0.14
CCCCCCCCCCCCCC[N+](C)(C)CCCCCCCCCCCS.[Cl-] | 0 | 0 | 0
C[N+](C)(C)CCCNC(=O)CCCCCCCCCCS.[Cl-] | 0 | 30 | 0.14
CCCCCCCCCCCCCC[N+](C)(C)CCCNC(=O)CCCCCCCCCCS.[Cl-] | 0 | 30 | 0.14
C[N+](C)(CCCNC(=O)CCCCCCCCCCS)Cc1ccccc1.[Cl-] | 0 | 0 | 0
C[N+](C)(C)CCCCCCCCCCCS.[Cl-] | 0 | 30 | 0.14
CCCCCCCCCCCC[N+](C)(C)CCCCCCCCCCCS.[Cl-] | 0 | 51 | 0.31
CCCCCCCCCC[N+](C)(C)CCCCCCCCCCCS.[Cl-] | 0 | 51 | 0.31
CCCCCCCCCC[N+](C)(C)CCCNC(=O)CCCCCCCCCCS.[Cl-] | 0 | 67 | 0.39
CCCCCCCCCCCC[N+](C)(C)CCCNC(=O)CCCCCCCCCCS.[Cl-] | 0 | 51 | 0.31
